Assay results as given in patent US12048691B2 (SPERO THERAPEUTICS, INC., priority 2020, dated 2024).
Values after ≈ are worked out from the molar mass of the structure shown. Read-outs that look alike come from different tables or passages of the source.

Experiments:
Type in all cases: cell-based
[1] = test system: Enterobacterales overproducing AmpC; assay: Broth microdilution susceptibility of isolates overexpressing AmpC
Experimental: (§1) Frozen-form broth microdilution panels were manufactured by JMI Laboratories and contained cation-adjusted Mueller-Hinton broth. Quality assurance was performed by sterility checks, colony counts, and testing CLSI recommended quality control reference strains.

[2] = test system: P. aeruginosa isolates that overproduced AmpC; assay: as above
Experimental: as §1

[3] = test system: AmpC production in Enterobacterales; assay: AmpC induction (nitrocefin hydrolysis after drug exposure); details: tebipenem/imipenem except for C. koseri and S. marcescens
Experimental: (§2) AmpC induction was determined as follows. Baseline MIC values were determined by broth microdilution method, as described above, for 9 Gram-negative isolates with basal expression of ampC. These isolates were cultured overnight on blood agar plates. A standardized inoculum made from fresh overnight plate cultures was added to flasks containing 50 mL of Luria-Bertani (LB) broth and incubated by shaking at 37° C. to OD600 of 0.3. […] These cultures were incubated under shaking conditions. A 40 mL aliquot of bacterial cultures was sampled at time 0 and 2 hours after drug exposures. Each sample aliquot was harvested by centrifugation and the supernatant was discarded.
(§3) Protein crude extract preparations were made in 200 μL of BugBusterR (Novagen, Darmstadt, Germany) per manufacturer instructions and cell debris was removed by centrifugation. Protein concentrations were determined in each crude extract by standard methodologies.
(§4) AmpC induction was measured by the intensity of β-lactamase hydrolytic activity against 0.1 mM nitrocefin in 0.1 M phosphate buffer at pH 7.0 using spectrophotometry at 482 nm (Δ absorbance/minute/mg of protein). The drug exposure conditions that caused a >4-fold increase in hydrolysis activity compared to the baseline were subjected to postinduction experiments. Briefly, cells were grown under the same conditions as before and tested for susceptibility by broth microdilution.

[4] = test system: AmpC production in P. aeruginosa; assay: as above
Experimental: as §2, §3, §4

[5] = test system: Methicillin-susceptible Staphylococcus aureus (MSSA); assay: Broth microdilution against Gram-positive clinical isolates
Experimental: (§5) The purpose of this study was to investigate the in vitro activity of tebipenem and comparator agents, including ertapenem and meropenem, against a recent collection of Gram-positive isolates associated with clinical infections. The susceptibility of 580 Gram-positive organisms were tested, including: Methicillin-susceptible Staphylococcus aureus (MSSA, 489 isolates), Methicillin-susceptible Staphylococcus epidermidis (MSSE, 31), other methicillin-susceptible coagulase-negative staphylococci (MSCONS, 29), and Vancomycin-susceptible Enterococcus faecalis (31). Bacterial species were identified by JMI Laboratories using standard microbiology methods and matrix-assisted laser desorption ionization-time of flight mass spectrometry (Bruker Daltonics, Bremen, Germany). The isolates were collected in 2018 and 2019 as part of the SENTRY surveillance program and selected to be representative of these species with 45.0% from the United States, 44.3% from Europe, 5.3% from the Asia-Pacific region, and 5.3% from Latin America. Isolates are primarily from pneumonia in hospitalized patients (498 isolates; 85.9%), urinary tract infections (42 isolates; 7.2%), and bloodstream infections (38 isolates; 6.6%). Isolates were tested in a central laboratory (JMI Laboratories) for antimicrobial susceptibility using the CLSI M07 (2018) reference broth microdilution method. JMI Laboratories produced frozen-form 96-well panels and used cation-adjusted Mueller-Hinton broth (CA-MHB) as the testing medium. All categorical interpretations used CLSI M100 (2021) and EUCAST v10.0 (2021) breakpoint criteria, where published. Quality control organisms include Escherichia coli ATCC 25922, Escherichia coli ATCC 35218, Enterococcus faecalis ATCC 29212, Pseudomonas aeruginosa ATCC 27853, and Staphylococcus aureus ATCC 29213 were tested concurrently with clinical isolates.

[6] = test system: Methicillin-susceptible Staphylococcus epidermidis (MSSE); assay: as above
Experimental: as §5

[7] = test system: Vancomycin-susceptible Enterococcus faecalis; assay: as above; details: E. faecalis
Experimental: as §5

[8] = test system: other methicillin-susceptible coagulase-negative staphylococci (MSCONS); assay: as above
Experimental: The purpose of this study was to investigate the in vitro activity of tebipenem and comparator agents, including ertapenem and meropenem, against a recent collection of Gram-positive isolates associated with clinical infections. The susceptibility of 580 Gram-positive organisms were tested, including: […] Bacterial species were identified by JMI Laboratories using standard microbiology methods and matrix-assisted laser desorption ionization-time of flight mass spectrometry (Bruker Daltonics, Bremen, Germany). […] Isolates were tested in a central laboratory (JMI Laboratories) for antimicrobial susceptibility using the CLSI […] (2018) reference broth microdilution method. JMI Laboratories produced frozen-form 96-well panels and used cation-adjusted Mueller-Hinton broth (CA-MHB) as the testing medium. […] Quality control organisms include Escherichia coli ATCC 25922, Escherichia coli ATCC 35218, Enterococcus faecalis ATCC 29212, Pseudomonas aeruginosa ATCC 27853, and Staphylococcus aureus ATCC 29213 were tested concurrently with clinical isolates.

[9] = test system: methicillin-susceptible staphylococci, including MSSA, MSSE, and other MSCONS; assay: Broth microdilution against Gram-positive clinical isolates, summary
Experimental: as §5, with “JMI Laboratories produced frozen-form 96-well panels and used cation-adjusted Mueller-Hinton broth (CA-MHB) as the testing medium. All categorical interpretations used CLSI M100 (2021) and EUCAST v10.0 (2021) breakpoint criteria, where published. Quality control organisms include Escherichia coli ATCC 25922, Escherichia coli ATCC 35218, Enterococcus faecalis ATCC 29212, Pseudomonas aeruginosa ATCC 27853, and Staphylococcus aureus ATCC 29213 were tested concurrently with clinical isolates.” left out

Enterobacterales (ENT) = assay: Broth microdilution against US UTI pathogens 2019-2020; details: against ENT, EC, and KPN
Experimental: This study assessed the in vitro activity of tebipenem and comparator agents against Enterobacterales (ENT) responsible for UTIs in the US during 2019-2020. A total of 3,576 ENT recovered from urine samples during the 2019-2020 STEWARD Surveillance Program were included in the study. Isolates were collected from medical centers in all 9 US Census Regions and were centrally tested for susceptibility by reference broth microdilution method. MIC interpretation was performed based on CLSI criteria.

[10] = P. aeruginosa overproducing AmpC
[11] = Staphylococcus aureus, 489 isolates
[12] = Staphylococcus epidermidis, 31 isolates

C[C@@H](O)[C@H]1C(=O)N2C(C(=O)O)=C(SC3CN(C4=NCCS4)C3)[C@H](C)[C@H]12 [Tebipenem, tebipenem]
MIC50 [1]: 0.03 µg/mL (≈ 0.0782 µM) | MIC90 [1]: 0.25 µg/mL (≈ 0.652 µM) | MIC50 ([1]; Enterobacterales (36)): 0.03 μ/ml | MIC90 ([1]; Enterobacterales (36)): 0.25 μ/ml | MIC range ([1]; Enterobacterales (36)): 0.015 to 1 μ/ml | concentration inhibiting all isolates ([1]; Enterobacterales overproducing AmpC): ≤ 1 µg/mL | MIC range ([2]; P. aeruginosa (32)): 2 to 8 μ/ml | MIC50 [2, 10]: 4 µg/mL (≈ 10.4 µM) | MIC90 [2, 10]: 4 µg/mL (≈ 10.4 µM) | effect of exposure on production of AmpC [3]: increased production of AmpC | effect of exposure on production of AmpC [4]: increased the production of AmpC | MIC90 fold lower than ertapenem [5]: 8 fold | MIC50 [5, 11]: 0.015 µg/mL (≈ 0.0391 µM) | MIC90 [5, 11]: 0.03 µg/mL (≈ 0.0782 µM) | MIC90 fold lower than ertapenem [6]: 32 fold | MIC50 [6, 12]: 0.008 µg/mL (≈ 0.0209 µM) | MIC90 [6, 12]: 0.015 µg/mL (≈ 0.0391 µM) | MIC90 fold lower than ertapenem [7]: 16 fold | MIC90 fold lower than meropenem [7]: at least 2 fold | concentration inhibiting all isolates [7]: ≤ 1 mg/L | MIC90 ([7]; Enterococcus faecalis, 31 isolates): 1 µg/mL (≈ 2.61 µM) | MIC90 fold lower than ertapenem [8]: 32 fold | MIC50 ([8]; 29 isolates): 0.015 µg/mL (≈ 0.0391 µM) | MIC90 ([8]; 29 isolates): 0.03 µg/mL (≈ 0.0782 µM) | MIC50 and MIC90 values, range over species groups [9]: 0.015 to 0.03 µg/mL | activity fold greater than ertapenem [9]: 16- to 32 fold | MIC90 (Enterobacterales (ENT)): 0.015 to 0.06 µg/mL (≈ 0.0391 to 0.156 µM)
